Assay results published in patent publication US20240293430A1, “WITHAFERIN A AND IMMUNE CHECKPOINT BLOCKER COMBINATION THERAPIES” (University of South Florida, priority 2023, published 2024).

Assays:
[1] = system: NSCLC cell lines (LLC, H1650, A549); experiment: Annexin V apoptosis assay (flow cytometry); format: cell-based, mouse (LLC), human (H1650; details: 48 h, compared to untreated cells
Procedure: FIGS. 1A-lE depict that WFA induces ER stress-mediated apoptosis in NSCLC cell lines. (FIG. 1A) NSCLC cells were plated on 96-well plates and treated with different concentrations of WFA ([…]) in triplicates. Forty-eight hours post-treatment, cell viability was determined using Cell Titer-Glo assay. Luminescence values were normalized to control untreated cells and IC50 values are represented as the mean of two independent experiments ±SEM. (FIG. 1B) NSCLC cells were treated WFA for forty-eight hours, then collected to measure apoptotic cell death using Annexin V assay in LLC cells, H1650 cells, and A549 cells. Percentages of early (annexin*DAPI-) and late (annexin*DAPI+) apoptotic cells are represented as means of two separate experiments ±SEM and statistical significance was calculated using one-way ANOVA and a Fisher LSD post hoc test was used to compare the mean of each group to that of the control group. (FIGS. 1C-1D) WFA treated cells were collected in Trizol and total RNA was isolated to measure the levels of Bax (FIG. 1C) and Bcl2 (FIG. 1D) mRNA using qRT-PCR. PCR experiments were repeated at least twice, and one representative experiment is shown as mean±SEM of the technical replicates. […] The quantification of western blot band density was performed using Image J software v.1.54d and normalized to housekeeping control protein in LLC cells (0-actin). […]

[2] = system: tumor-immune infiltration and ecto-CRT in LLC tumors; experiment: LLC syngeneic mouse model, flow cytometry of collected tumors; format: in vivo, C57BL/6 mice
Procedure: FIGS. 5A-5G depict that WFA sensitizes flank tumors to α-PD-L1 therapy and targets immunosuppressive MDSCs and T-regs. (FIG. 5A) Establishment of LLC flank tumors and treatment schedule. (FIG. 5B) Tumor volume measurement in mm^3 and tumor weight at the endpoint of the experiment. (FIG. 5C) Change in the levels of ecto-CRT in tumors was measured using flow cytometry. (FIGS. 5D-5G) Flow cytometry was used to determine the change in immune cell infiltration in collected tumors. […] Moreover, WFA reduced the immunosuppressive T regs (FIG. 5F) and CD11b+Gr1+MDSC (FIG. 5G) populations. The means of two independent experiments ±SEM are shown, and the statistical significance was calculated using one-way ANOVA and a Fisher LSD post hoc test where * and #represent p<0.05 and ** and ##represent p<0.01. * Symbols refer to the difference between the vehicle control and WFA, while #refers to comparisons between the vehicle control and WFA+α-PD-L1 combination.
FIGS. 12A-12D depicts the gating strategy used to determine tumor immune infiltration in LLC tumors and spleens. […] Out of the CD11b population, we gated the monocytic CD11b+Ly6C+ and CD11b+Ly6G+granulocytic MDSCs. (FIG. 12B) For the T-cell panel, the total CD-3 population was gated out of the live single cells. Consequently, CD4, CD25+CD4+Tregs and CD8 population were gated out of CD-3 cells based on the FMO controls. (FIGS. 12C-12D) Mice body weights were measured at the endpoint of the experiment and represented as mean±SEM. The means were compared to the vehicle control using Fisher LSD post-hoc test. * p<0.05.
In vitro WFA-treated or control cells were collected using Accutase cell detachment solution and stained with FACS-diluted (PBS, 10% FBS, 2 mMEDTA) pre-titrated fluorophore conjugated or primary unconjugated antibody solutions (Table 1) for 30 min on ice in the dark. In case of fluorophore-conjugated antibodies, samples are washed and immediately acquired after adding DAPI viability dye, while samples stained with unconjugated antibodies are incubated with the proper secondary fluorophore-conjugated antibody for 30 min before washing and acquisition. For in vivo experiments, the processed tumor or spleen single cell suspensions were used for surface staining with the pre-titrated antibodies (Table 1) for 30 min on ice in the dark. To exclude the dead cells from the analysis, a fixable live/dead Zombie Aqua viability kit (Biolegend, San Diego, CA, USA) was used according to the manufacturer's protocol. Samples were then fixed using 2% PFA for 15 min then washed and stored at 4° C. before acquisition. Samples were acquired using a Becton Dickenson Biosciences (BD, Franklin Lakes, NJ, USA) FACS Canto II or LSR II system at the University of South Florida COM Fred Wright Jr Flow Cytometry Core.
C57BL/6 mice were purchased from the Jackson Laboratory (Bar Harbor, ME, USA) and acclimated for a week. To establish the LLC syngeneic tumors, C57BL/6 mice were injected with a half million cells on the right flank and monitored until tumors were first palpable (2-3 mm diameter). […] Treatments were administered every other day with a total of five treatments and mice body weights and tumor volumes were monitored using a caliper (Fisher Scientific, Waltham, MA, USA, 15-077-957). Tumor volumes (mm^3) were calculated using the equation ([…]), where the length is defined as the bigger tumor dimension. […]

## CC1=C(CO)C(=O)O[C@@H]([C@@H](C)[C@H]2CC[C@H]3[C@@H]4C[C@H]5O[C@]56[C@@H](O)C=CC(=O)[C@]6(C)[C@H]4CC[C@]23C)C1 [WFA, Withaferin A]
[1]
  early and late apoptotic cell populations: significant increase
[2]
  CD11b+Gr1+ MDSCs in the tumor: reducing
  CD25+CD4+ T-regs in the tumor: reducing
[2]; vs control mice
  levels of ecto-CRT in vivo: increased
[2]; vs vehicle control
  CD8 T-cell infiltration: increasing
  T-cell activation markers CD69 and 41BB: not significant
